{"source": "patent US20230404971A1", "about": "“Combination Comprising Abemaciclib and 6-(2,4-Dichlorophenyl)-5-[4-[(3S)-1-(3-Fluoropropyl)Pyrrolidin-3-yl]Oxyphenyl]-8,9-Dihydro-7H-Benzo[7]Annulene-2-Carboxylic Acid” (Sanofi, priority 2020, published 2023)", "key": {"[1]": {"test_system": "MCF7-Y537S human breast cancer cell line xenograft", "test": "Anti-tumor efficacy against subcutaneous MCF7-Y537S human breast cancer cell line xenograft in female nude mice", "type": "in vivo, female BALB/c nude mice", "set-up": "key to Biological Interpretation: Active: ΔT/ΔC≤40% is considered as therapeutically active; Very active: ΔT/ΔC<0% is considered as tumor regression (very active); Inactive: ΔT/ΔC>40% is considered as therapeutically inactive", "details": "for Tumor volume changes from baseline, Median: n = 7", "description": "In the present study, the anti-tumor efficacy of 6-(2,4-dichlorophenyl)-5-[4-[(3S)-1-(3-fluoropropyl)pyrrolidin-3-yl]oxyphenyl]-8,9-dihydro-7H-benzo[7]annulene-2-carboxylic acid (“compound (1)”), combined with abemaciclib, was investigated after 22 days treatment against a subcutaneous MCF7-Y537S human breast cancer cell line xenograft in female nude mice.\nThe treated groups included compound (1) at 20 mg/kg alone, abemaciclib at 70 mg/kg alone, and the combination of compound (1) and abemaciclib at the same dose and regime,\nCompound (1) was orally dosed twice a day (BID) and abemaciclib was orally dosed once a day (QD) for 22 days. Anti-tumor efficacy was evaluated by tumor volume measurement.\nFemale BALB/c nude mice were obtained from Shanghai Sino-British SIPPR/BK Laboratory Animal Co., LTD (Shanghai, CHINA). Animals were allowed to acclimate for at least four days before the study enrollment. Mice were 6 to 8 weeks old and weighed between 18 and 24 grams at the beginning of the treatments. These animals were housed under conditions outlined in the guidelines approved by the Institutional Animal Care and Use Committee (IACUC) of WuXi AppTec following the guidance of the Association for Assessment and Accreditation of Laboratory Animal Care (AAALAC).\nParental MCF7 cells were obtained from the American Type Culture Collection (ATCC® HTB-22™). MCF7-Y537S (ESR1) cell line was MCF7 cells expressing the ER.Y537S variant that was generated by Sanofi Biology Discovery Group. Y537S mutation was introduced in ESR1 construct (GenBank NM_000125.3) by site directed mutagenesis (Toy W. et al., Cancer Discovery, 2017, 7, 277-287). The construct was transfected in MCF7 cells which were selected for their growth in absence of estradiol. MCF-Y537S is an ESR1 mutation that confers estrogen-independent activity to ERα (Estrogen Receptor alpha) and contributes to endocrine resistant disease (Robinson D. R. et al., Nat Genet., 2013, 45 (12), 1446-1451). The cells were grown in Eagle's Minimum Essential Medium (EMEM) supplemented with 10% fetal bovine serum (FBS), human Insulin, in 5% CO2 at 37° C. The cells were harvested in 0.25% Trypsin EDTA and washed by Phosphate Buffered Saline (PBS) and re-suspended in PBS with 75% Matrigel. The cells (20×10^6 cells/per mouse) were subcutaneously (SC) implanted into the right flank of female nude mice.\nWhen the MCF7-Y537S tumors were established, the tumors were reserved as tumor stocks for fragment implantation. The tumors were serially propagated through fragment tissue transplantation subcutaneously. The fragment tumor tissues were subcutaneously implanted into the right flank of female nude mice. 28 mice were assigned in this experiment.\nAbemaciclib (Manufacturer: Sanofi; Lot number: VAC.DLE20.006.1) was formulated in 40% SBE-β-CD in HCl 0.1N pH 3.0. Compound (1) was prepared in 5% Solutol HS15 (purchased from Sigma) at pH 3.0.\nDose volume for compound (1) and abemaciclib for oral administration: 10 ml/kg by oral gavage.\nDoses: compound (1) at 20 mg/kg and abemaciclib at 70 mg/kg in the above volume.\nThe animals required for experiment (plus extra) were pooled and implanted with MCF7-Y537S tumor fragment tissues. On day 0 (20 days post implantation), the mice were pooled and randomly distributed to the treatment and control groups (7 mice per group), where median tumor volumes for each group was 173 mm^3. Treatments of compound (1) and abemaciclib were initiated on day 0. Compound (1) was orally administered at 20 mg/kg BID (8 hours apart) and abemaciclib was orally administered at 70 mg/kg QD, for 22 days. Animal body weight was assessed daily.\nThe dosages are expressed in mg/kg and based on daily body weight per animal. Vehicle treated animals were used as controls. Mice were checked daily and adverse clinical reactions noted. Individual mice were weighed daily until the end of the experiment. Mice would be euthanized when morbid or weight loss ≥20% was observed. […]"}, "[2]": {"test": "Tolerability (body weight, deaths) in the MCF7-Y537S xenograft study", "type": "in vivo", "description": "The animals required for experiment (plus extra) were pooled and implanted with MCF7-Y537S tumor fragment tissues. […] Animal body weight was assessed daily.\nThe dosages are expressed in mg/kg and based on daily body weight per animal. Vehicle treated animals were used as controls. Mice were checked daily and adverse clinical reactions noted. Individual mice were weighed daily until the end of the experiment. Mice would be euthanized when morbid or weight loss ≥20% was observed. Tumors were measured with a caliper twice weekly until final sacrifice. When a tumor size reached approximately 2000 mm^3 or when there are animal health issues (40% area of a tumor ulcerated), animals would be euthanized and date of death recorded. Solid tumor volumes were estimated from two-dimensional tumor measurements and calculated according to the following equation: […]\nAnimal body weight included the tumor weight."}, "[3]": {"details": "day 22, PO for 22 days, compound (1) 20 mg/kg BID, abemaciclib 70 mg/kg QD, alone or combined"}}, "data": [{"smiles": "CCN1CCN(Cc2ccc(Nc3ncc(F)c(-c4cc(F)c5nc(C)n(C(C)C)c5c4)n3)nc2)CC1", "note": "[Abemaciclib, N-{5-[(4-ethylpiperazin-1-yl)methyl]pyridin-2-yl}-5-fluoro-4-[4-fluoro-2-methyl-1-(propan-2-yl)-1H-benzimidazol-6-yl]pyrimidin-2-amine]", "values": [{"measurement": "Tumor volume changes from baseline, Median", "setting": "[1]; Day 4, compound (1) 20 mg/kg BID, abemaciclib 70 mg/kg QD, alone or combined", "value": 9.0, "unit": "mm^3"}, {"measurement": "Tumor volume changes from baseline, Median", "setting": "[1]; Day 8, compound (1) 20 mg/kg BID, abemaciclib 70 mg/kg QD, alone or combined", "value": 40.0, "unit": "mm^3"}, {"measurement": "Tumor volume changes from baseline, Median", "setting": "[1]; Day 11, compound (1) 20 mg/kg BID, abemaciclib 70 mg/kg QD, alone or combined", "value": 83.0, "unit": "mm^3"}, {"measurement": "Tumor volume changes from baseline, Median", "setting": "[1]; Day 15, compound (1) 20 mg/kg BID, abemaciclib 70 mg/kg QD, alone or combined", "value": 119.0, "unit": "mm^3"}, {"measurement": "Tumor volume changes from baseline, Median", "setting": "[1]; Day 18, compound (1) 20 mg/kg BID, abemaciclib 70 mg/kg QD, alone or combined", "value": 150.0, "unit": "mm^3"}, {"measurement": "Tumor volume changes from baseline, Median", "setting": "[1]; Day 22, compound (1) 20 mg/kg BID, abemaciclib 70 mg/kg QD, alone or combined", "value": 199.0, "unit": "mm^3"}, {"measurement": "Regressions Complete", "setting": "[1]; animals with complete regression / animals in group, 22 days treatment", "value": "0/7"}, {"measurement": "Regressions Partial", "setting": "[1]; animals with partial regression / animals in group, 22 days treatment", "value": "0/7"}, {"measurement": "Biological Interpretation", "setting": "[1]; based on ΔT/ΔC at day 22", "value": "Active"}, {"measurement": "Median % of regressions on day 22", "setting": "[1]; [3]", "value": 0, "unit": "%"}, {"measurement": "ΔT/ΔC in % at day 22", "setting": "[1]; [3]", "value": 19, "unit": "%"}, {"measurement": "Anti-tumor effect on tumor growth (in words)", "setting": "[1]; day 22, versus control", "value": "statistically significant anti-tumor efficacy"}, {"measurement": "Body weight loss", "setting": "[2]; compound (1) 20 mg/kg BID, abemaciclib 70 mg/kg QD, alone or combined, 22 days, PO", "value": "no significant body weight loss"}, {"measurement": "Unscheduled death (Day of death)", "setting": "[2]; deaths / animals in group, 22 days treatment", "value": "0/7"}]}]}
